According to patent US20220041606A1, “POSITIVE ALLOSTERIC MODULATORS OF THE MUSCARINIC ACETYLCHOLINE RECEPTOR M1” (Vanderbilt University, priority 2020, published 2022):

Key:
human mAChR M1 [1] = biological target: T1, human mAChR M1 (Homo sapiens, UniProt P11229); test: mAChR M1 cell-based functional assay (calcium mobilization), agonist activity upon compound addition; details: CHO-K1 cells expressing hM1; for EC50: compound alone, before acetylcholine addition; for Emax: relative to the maximum for acetylcholine
T1 construct: host or cells: CHO-K1 cells (ATCC), stably transfected using Lipofectamine2000
T1 sequence (P11229 1-460): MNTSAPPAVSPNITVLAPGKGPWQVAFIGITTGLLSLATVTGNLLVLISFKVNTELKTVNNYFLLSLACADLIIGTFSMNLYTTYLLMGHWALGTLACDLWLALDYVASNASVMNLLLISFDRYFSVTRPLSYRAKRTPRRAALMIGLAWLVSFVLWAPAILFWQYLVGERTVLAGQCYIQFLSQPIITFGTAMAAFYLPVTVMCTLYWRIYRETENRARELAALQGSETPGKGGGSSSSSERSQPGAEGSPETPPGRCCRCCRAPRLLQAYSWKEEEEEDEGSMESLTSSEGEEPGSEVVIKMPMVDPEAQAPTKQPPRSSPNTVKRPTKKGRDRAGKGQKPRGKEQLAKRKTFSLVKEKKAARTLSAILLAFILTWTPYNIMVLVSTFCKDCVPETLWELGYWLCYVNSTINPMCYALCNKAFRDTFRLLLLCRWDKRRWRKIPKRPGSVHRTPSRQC
Summary of the method: (§1)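 CHO-K1 cells stably expressing hM1, loaded with Fluo-4 AM; calcium flux read on FDSS 6000. Compound (11-point, 1:3 CRC) added at 4 s, EC20 acetylcholine at 144 s, EC80 at 230 s; agonism from response to compound alone, PAM from increase in EC20 response; Emax relative to acetylcholine maximum, four-parameter fit.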

human mAChR M1 [2] = biological target: T1, human mAChR M1; test: mAChR M1 cell-based functional assay (calcium mobilization), PAM activity: increase in the EC20 acetylcholine response; details: CHO-K1 cells expressing hM1; potentiation of EC20 acetylcholine response
Summary of the method: as §1

SMILES	EC50 (human mAChR M1 [1])	Emax (human mAChR M1 [1])	EC50 (human mAChR M1 [2])	Emax (human mAChR M1 [2])
Cn1ccc(-c2ccc(Cn3cc(C(=O)N[C@H]4CCC[C@@H]4O)c4nccnc4c3=O)c(F)c2)n1 [Compound A64, 6-(2-fluoro-4-(1-methyl-1H-pyrazol-3-yl)benzyl)-N-((1S,2S)-2-hydroxycyclopentyl)-5-oxo-5,6-dihydropyrido[3,4-b]pyrazine-8-carboxamide]	> 10 µM	41%	≥ 10 µM	41%
Cn1cc(-c2ccc(Cn3cc(C(=O)NC4CC5(COC5)C4)c4nccn4c3=O)c(F)c2)cn1 [Compound B9, 6-(2-fluoro-4-(1-methyl-1H-pyrazol-4-yl)benzyl)-5-oxo-N-(2-oxaspiro[3.3]heptan-6-yl)-5,6-dihydroimidazo[1,2-c]pyrimidine-8-carboxamide]		17%	2.06 µM	61%
Cn1cc(-c2ccc(Cn3cc(C(=O)N[C@H]4CCOC[C@@H]4O)c4ncccc4c3=O)c(F)c2)cn1 [Compound A6, 6-(2-fluoro-4-(1-methyl-1H-pyrazol-4-yl)benzyl)-N-((3R,4S)-3-hydroxytetrahydro-2H-pyran-4-yl)-5-oxo-5,6-dihydro-1,6-naphthyridine-8-carboxamide]	8.2 µM	23%	0.22 µM	89%
O=C(N[C@H]1CCCCC[C@@H]1O)c1cn(Cc2ccc(-n3cccn3)cc2)c(=O)c2cccnc12 [Compound A25, 6-(4-(1H-pyrazol-1-yl)benzyl)-N-((1S,2S)-2-hydroxycycloheptyl)-5-oxo-5,6-dihydro-1,6-naphthyridine-8-carboxamide]	> 10 µM	< 5%	0.97 µM	68%
Cc1ncc(-c2cc(F)c(Cn3cc(C(=O)N[C@H]4CCOC[C@@H]4O)c4ncccc4c3=O)c(F)c2)s1 [Compound A51, 6-(2,6-difluoro-4-(2-methylthiazol-5-yl)benzyl)-N-((3R,4S)-3-hydroxytetrahydro-2H-pyran-4-yl)-5-oxo-5,6-dihydro-1,6-naphthyridine-8-carboxamide]	> 10 µM	< 5%	1.68 µM	75%
Cc1cc(C)cc(-c2ccc(Cn3cc(C(=O)N[C@H]4CCOC[C@@H]4O)c4ncccc4c3=O)c(F)c2)c1 [Compound A30, 6-((3-fluoro-3′,5′-dimethyl-[1,1′-biphenyl]-4-yl)methyl)-N-((3R,4S)-3-hydroxytetrahydro-2H-pyran-4-yl)-5-oxo-5,6-dihydro-1,6-naphthyridine-8-carboxamide]	> 10 µM	< 5%	4.61 µM	47%
Cn1cc(-c2ccc(Cn3cc(C(=O)N[C@H]4CCCCC[C@@H]4O)c4ncccc4c3=O)cc2)cn1 [Compound A87, N-((1S,2S)-2-hydroxycycloheptyl)-6-(4-(1-methyl-1H-pyrazol-4-yl)benzyl)-5-oxo-5,6-dihydro-1,6-naphthyridine-8-carboxamide]	> 10 µM	< 5%	0.82 µM	44%
Cn1cc2c(-c3cc(F)c(Cn4cc(C(=O)N[C@H]5CCOC[C@@H]5O)c5occc5c4=O)c(F)c3)cccc2n1 [Compound D18, 5-(2,6-Difluoro-4-(2-methyl-2H-indazol-4-yl)benzyl)-N-((3R,4S)-3-hydroxytetrahydro-2H-pyran-4-yl)-4-oxo-4,5-dihydrofuro[3,2-c]pyridine-7-carboxamide]	2.27 µM	11%	0.28 µM	85%
Cn1cc2c(-c3cc(F)c(Cn4cc(C(=O)N[C@H]5CCOC[C@@H]5O)c5ncccc5c4=O)c(F)c3)cccc2n1 [Compound A21, 6-(2,6-difluoro-4-(2-methyl-2H-indazol-4-yl)benzyl)-N-((3R,4S)-3-hydroxytetrahydro-2H-pyran-4-yl)-5-oxo-5,6-dihydro-1,6-naphthyridine-8-carboxamide]	1.23 µM	31%	0.019 µM	72%
O=C(N[C@H]1CCC[C@@H]1O)c1cn(Cc2ccc(-n3cccn3)cc2)c(=O)n2ccnc12 [Compound B14, 6-(4-(1H-pyrazol-1-yl)benzyl)-N-((1S,2S)-2-hydroxycyclopentyl)-5-oxo-5,6-dihydroimidazo[1,2-c]pyrimidine-8-carboxamide]		28%	1.33 µM	70%
O=C(N[C@H]1CCC[C@@H]1O)c1cn(Cc2ccc(-n3cccn3)cc2)c(=O)c2nccnc12 [Compound A61, 6-(4-(1H-pyrazol-1-yl)benzyl)-N-((1S,2S)-2-hydroxycyclopentyl)-5-oxo-5,6-dihydropyrido[3,4-b]pyrazine-8-carboxamide]	> 10 µM	< 5%	≥ 10 µM	33%
Cn1ccc(-c2ccc(Cn3cc(C(=O)N[C@@H]4CC[C@H]4O)c4ncccc4c3=O)c(F)c2)n1 [Compound A4, 6-(2-fluoro-4-(1-methyl-1H-pyrazol-3-yl)benzyl)-N-((1R,2R)-2-hydroxycyclobutyl)-5-oxo-5,6-dihydro-1,6-naphthyridine-8-carboxamide]	> 10 µM	< 5%	3.45 µM	42%
Cn1nccc1-c1ccc(Cn2cc(C(=O)N[C@H]3CCCC[C@@H]3O)c3ncccc3c2=O)c(F)c1 [Compound A46, 6-(2-fluoro-4-(1-methyl-1H-pyrazol-5-yl)benzyl)-N-((1S,2S)-2-hydroxycyclohexyl)-5-oxo-5,6-dihydro-1,6-naphthyridine-8-carboxamide]	> 10 µM	< 5%	1.13 µM	41%
Cc1cn2c(=O)n(Cc3c(F)cc(-c4cccc5nn(C)cc45)cc3F)cc(C(=O)N[C@H]3CCCC[C@@H]3O)c2n1 [Compound B30, 6-(2,6-difluoro-4-(2-methyl-2H-indazol-4-yl)benzyl)-N-((1S,2S)-2-hydroxycyclohexyl)-2-methyl-5-oxo-5,6-dihydroimidazo[1,2-c]pyrimidine-8-carboxamide]	> 10 µM	< 5%	5.89 µM	27%
Cn1cc(-c2ccc(Cn3cc(C(=O)N[C@H]4CCCCC[C@@H]4O)c4nccnc4c3=O)c(F)c2)cn1 [Compound A78, 6-(2-fluoro-4-(1-methyl-1H-pyrazol-4-yl)benzyl)-N-((1S,2S)-2-hydroxycycloheptyl)-5-oxo-5,6-dihydropyrido[3,4-b]pyrazine-8-carboxamide]		5%	2.98 µM	67%
Cc1cnn(C)c1-c1ccc(Cn2cc(C(=O)N[C@H]3CCOC[C@@H]3O)c3nccn3c2=O)c(F)c1 [Compound B34, 6-(4-(1,4-dimethyl-1H-pyrazol-5-yl)-2-fluorobenzyl)-N-((3R,4S)-3-hydroxytetrahydro-2H-pyran-4-yl)-5-oxo-5,6-dihydroimidazo[1,2-c]pyrimidine-8-carboxamide]	> 10 µM	< 5%	≥ 10 µM	44%
Cn1cc(-c2ccc(Cn3cc(C(=O)N[C@H]4CCOC[C@@H]4O)c4ncccc4c3=O)cc2)cn1 [Compound A58, N-((3R,4S)-3-hydroxytetrahydro-2H-pyran-4-yl)-6-(4-(1-methyl-1H-pyrazol-4-yl)benzyl)-5-oxo-5,6-dihydro-1,6-naphthyridine-8-carboxamide]	5.27 µM	40%	0.37 µM	68%
Cc1cccc(-c2cc(F)c(Cn3cc(C(=O)N[C@H]4CCOC[C@@H]4O)c4ncccc4c3=O)c(F)c2)c1 [Compound A31, 6-((3,5-difluoro-3′-methyl-[1,1′-biphenyl]-4-yl)methyl)-N-((3R,4S)-3-hydroxytetrahydro-2H-pyran-4-yl)-5-oxo-5,6-dihydro-1,6-naphthyridine-8-carboxamide]	> 10 µM	< 5%	2.6 µM	70%
O=C(N[C@H]1CCC[C@@H]1O)c1cn(Cc2ccc(-n3cccn3)cc2)c(=O)c2cccnc12 [Compound A14, 6-(4-(1H-pyrazol-1-yl)benzyl)-N-((1S,2S)-2-hydroxycyclopentyl)-5-oxo-5,6-dihydro-1,6-naphthyridine-8-carboxamide]	> 10 µM	< 5%	7.78 µM	64%
Cn1cc2c(-c3cc(F)c(Cn4cc(C(=O)N[C@H]5CCCC[C@@H]5O)c5ncncc5c4=O)c(F)c3)cccc2n1 [Compound A88, 6-(2,6-Difluoro-4-(2-methyl-2H-indazol-4-yl)benzyl)-N-((1S,2S)-2-hydroxycyclohexyl)-5-oxo-5,6-dihydropyrido[4,3-d]pyrimidine-8-carboxamide]	> 10 µM	< 5%	≥ 10 µM	40%
CC(C)[C@@H](CO)NC(=O)c1cn(Cc2ccc(-c3cnn(C)c3)cc2F)c(=O)c2nccnc12 [Compound A82, (S)-6-(2-fluoro-4-(1-methyl-1H-pyrazol-4-yl)benzyl)-N-(1-hydroxy-3-methylbutan-2-yl)-5-oxo-5,6-dihydropyrido[3,4-b]pyrazine-8-carboxamide]	> 10 µM	< 5%	≥ 10 µM	26%
